According to the supplement of paper PMC10307832:

Columns and labels:
Experiment in all cases: relative viability (nuclei count vs DMSO), 5 days (fraction); higher = more cells survive
[1] = compound: C1/C(=C\C2=CC=CS2)/C(=O)/C(=C/C3=CC=CS3)/C1 + CC(=O)Nc1cccc(-n2c(=O)n(C3CC3)c(=O)c3c(Nc4ccc(I)cc4F)n(C)c(=O)c(C)c32)c1 [Trametinib] (partner 0.02 µM)
In short: (§1)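 Each reported value is a median over duplicate plates. It expresses relative viability: treated-well nuclei count divided by vehicle-well nuclei count. Lung cancer cell lines in 1536-well plates were dosed by pin tool a day after seeding, alone with one drug or with a fixed anchor-drug dose plus five library-drug doses (not always all listed) in √10 steps, and nuclei were counted after 5 days.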

[2] = compound: C1/C(=C\C2=CC=CS2)/C(=O)/C(=C/C3=CC=CS3)/C1 + CS(=O)(=O)N1CCN(Cc2cc3nc(-c4cccc5[nH]ncc45)nc(N4CCOCC4)c3s2)CC1 [Pictilisib] (partner 1 µM)
In short: as §1

[3] = compound: C[C@]12O[C@H](C[C@]1(O)CO)n1c3ccccc3c3c4c(c5c6ccccc6n2c5c31)CNC4=O [Lestaurtinib] + N=C(N)NC(=N)NCCc1ccccc1 [Phenformin] (partner 250 µM)
In short: as §1

[4] = compound: C1=CC(=CC=C1C2=CC(=C(S2)NC(=O)N)C(=O)N)F [TPCA-1] + Cc1nc(NC(=O)N2CCC[C@H]2C(N)=O)sc1-c1ccnc(C(C)(C)C(F)(F)F)c1 [Alpelisib] (partner 2 µM)
In short: as §1

| Cell Line | relative viability ([1]; first compound 0.2 µM) | relative viability ([1]; first compound 0.6325 µM) | relative viability ([1]; first compound 2 µM) | relative viability ([1]; first compound 6.325 µM) | relative viability ([1]; first compound 20 µM) | relative viability ([2]; first compound 0.2 µM) | relative viability ([2]; first compound 0.6325 µM) | relative viability ([2]; first compound 2 µM) | relative viability ([2]; first compound 6.325 µM) | relative viability ([2]; first compound 20 µM) | relative viability ([3]; first compound 0.005 µM) | relative viability ([3]; first compound 0.01581 µM) | relative viability ([3]; first compound 0.05 µM) | relative viability ([3]; first compound 0.1581 µM) | relative viability ([3]; first compound 0.5 µM) | relative viability ([4]; first compound 0.04 µM) | relative viability ([4]; first compound 0.1265 µM) | relative viability ([4]; first compound 0.4 µM) | relative viability ([4]; first compound 1.265 µM) | relative viability ([4]; first compound 4 µM) |
| --- | --- | --- | --- | --- | --- | --- | --- | --- | --- | --- | --- | --- | --- | --- | --- | --- | --- | --- | --- | --- |
| LXF-289 | 0.707 | 0.693 | 0.675 | 0.626 | 0.613 | 0.814 | 0.772 | 0.821 | 0.699 | 0.797 | 0.515 | 0.498 | 0.42 | 0.302 | 0.213 | 1.07 | 0.951 | 1.05 | 0.955 | 0.783 |
| NCI-H23 | 0.411 | 0.406 | 0.4 | 0.369 | 0.365 | 0.557 | 0.495 | 0.535 | 0.551 | 0.542 | 0.835 | 0.756 | 0.762 | 0.813 | 0.457 | 0.756 | 0.665 | 0.705 | 0.587 | 0.512 |
| NCI-H322M | 0.519 | 0.494 | 0.474 | 0.433 | 0.517 | 0.541 | 0.526 | 0.654 | 0.538 | 0.522 | 0.689 | 0.694 | 0.478 | 0.517 | 0.393 | 0.846 | 0.74 | 0.764 | 0.688 | 0.785 |
| NCI-H358 | 0.124 | 0.134 | 0.148 | 0.133 | 0.132 | 0.37 | 0.312 | 0.412 | 0.182 | 0.453 | 0.338 | 0.295 | 0.208 | 0.137 | 0.0849 | 1 | 0.65 | 0.911 | 0.55 | 0.364 |
| NCI-H441 | 0.607 | 0.429 | 0.552 | 0.446 | 0.418 | 0.523 | 0.418 | 0.541 | 0.489 | 0.523 | 0.885 | 0.854 | 0.533 | 0.767 | 0.555 | 0.903 | 0.497 | 0.611 | 0.439 | 0.327 |
| NCI-H460 | 0.158 | 0.305 | 0.163 | 0.0691 | 0.139 | 0.365 | 0.279 | 0.453 | 0.303 | 0.346 | 0.583 | 0.533 | 0.401 | 0.307 | 0.0805 | 0.638 | 0.464 | 0.518 | 0.373 | 0.105 |
| NCI-H520 | 0.629 | 0.789 | 0.665 |  | 0.677 | 0.284 | 0.369 | 0.303 | 0.277 | 0.311 | 0.648 | 0.744 | 0.44 | 0.313 | 0.2 | 0.869 | 0.783 | 0.844 | 0.892 | 0.788 |
| NCI-H596 | 0.807 | 0.763 | 0.871 | 0.699 | 0.727 | 0.412 | 0.419 | 0.378 | 0.368 | 0.391 | 0.699 | 0.88 | 0.557 | 0.882 | 0.723 | 0.545 | 0.485 | 0.442 | 0.428 | 0.345 |
| NCI-H647 | 0.464 | 0.49 | 0.407 | 0.467 | 0.447 | 0.439 | 0.329 | 0.563 | 0.382 | 0.379 | 0.354 | 0.444 | 0.181 | 0.11 | 0.104 | 1.35 | 1.04 | 1.23 | 0.834 | 0.562 |
| NCI-H650 | 1.11 | 1 | 0.884 | 0.943 | 0.944 | 0.998 | 0.801 | 0.834 | 0.821 | 0.938 | 0.427 | 0.415 | 0.362 | 0.265 | 0.314 | 1.11 | 1.02 | 1.02 | 0.633 | 0.859 |
| NCI-H661 | 0.593 | 0.602 | 0.585 | 0.523 | 0.549 | 0.398 | 0.524 | 0.525 | 0.373 | 0.398 | 0.271 | 0.277 | 0.303 | 0.251 | 0.248 | 1.01 | 0.2 | 0.768 | 0.546 | 0.487 |
| NCI-H727 | 0.379 | 0.414 | 0.373 |  | 0.374 | 0.328 | 0.419 | 0.609 | 0.21 | 0.455 | 0.475 | 0.655 | 0.648 | 0.515 | 0.298 | 0.591 | 0.485 | 0.597 | 0.504 | 0.507 |
| NCI-H838 | 0.491 | 0.516 | 0.488 | 0.448 | 0.44 | 0.456 | 0.511 | 0.416 | 0.413 | 0.436 | 0.508 | 0.543 | 0.475 | 0.227 | 0.131 | 0.981 | 0.882 | 0.957 | 0.857 | 0.716 |
| NCI-H1355 | 0.42 | 0.43 | 0.457 | 0.341 | 0.407 | 0.519 | 0.401 | 0.411 | 0.391 | 0.474 | 0.455 | 0.465 | 0.374 | 0.391 | 0.263 | 0.802 | 0.567 | 0.871 | 0.761 | 0.555 |
| NCI-H1395 | 1.13 | 0.996 | 1.08 | 0.88 | 1.09 | 0.618 | 0.73 | 0.67 | 0.448 | 0.581 | 0.451 | 0.432 | 0.422 | 0.484 | 0.312 | 1.16 | 0.997 | 1.14 | 1.07 | 0.941 |
| NCI-H1437 | 0.51 | 0.52 | 0.442 | 0.461 | 0.428 | 0.437 | 0.402 | 0.406 | 0.404 | 0.36 | 0.343 | 0.349 | 0.241 | 0.292 | 0.16 | 0.959 | 0.869 | 1.04 | 0.85 | 0.755 |
| NCI-H1651 | 0.861 | 0.775 | 0.816 | 0.807 | 0.843 | 0.527 | 0.596 | 0.646 |  | 0.516 | 0.326 | 0.429 | 0.295 | 0.329 | 0.184 | 1.03 | 0.82 | 0.988 | 1.09 | 0.863 |
| NCI-H1666 | 0.855 | 0.86 | 0.791 | 0.861 | 0.77 | 0.587 | 0.281 | 0.408 | 0.273 | 0.309 | 0.613 | 0.617 | 0.668 | 0.561 | 0.389 | 1.08 | 0.813 | 0.925 | 1.04 | 0.747 |
| NCI-H1734 | 0.825 | 0.575 | 0.658 | 0.578 | 0.626 | 0.466 | 0.447 | 0.487 | 0.44 | 0.501 | 0.385 | 0.391 | 0.255 | 0.208 | 0.18 | 0.726 | 0.571 | 0.767 | 0.69 | 0.686 |
| NCI-H1755 | 0.75 | 0.768 | 0.794 | 0.627 | 0.714 | 0.475 | 0.436 | 0.435 | 0.353 | 0.386 | 0.663 | 0.648 | 0.462 | 0.336 | 0.287 | 0.937 | 0.88 | 0.893 | 0.806 | 0.526 |
| NCI-H1792 | 0.432 | 0.531 | 0.533 | 0.525 | 0.35 | 0.257 | 0.314 | 0.298 |  | 0.247 |  | 0.423 | 0.3 | 0.179 | 0.178 | 0.733 | 0.714 | 0.646 | 0.675 | 0.389 |
| NCI-H1793 | 0.429 | 0.452 | 0.49 | 0.403 | 0.463 | 0.409 | 0.202 | 0.291 | 0.31 | 0.352 | 0.353 | 0.447 | 0.296 | 0.436 | 0.3 | 0.724 | 0.646 | 0.735 | 0.828 | 0.566 |
| NCI-H1915 | 0.311 | 0.309 | 0.315 | 0.262 | 0.322 | 0.953 | 0.896 | 0.981 | 0.839 | 0.788 | 0.349 | 0.37 | 0.311 | 0.34 | 0.204 | 1.11 | 1.05 | 1.08 | 1.03 | 0.936 |
| NCI-H1944 | 0.393 | 0.421 | 0.424 |  | 0.388 | 0.35 | 0.333 | 0.357 | 0.162 | 0.341 | 0.194 | 0.209 | 0.164 | 0.133 | 0.132 | 0.859 | 0.799 | 0.815 | 0.744 | 0.658 |
| NCI-H1975 | 0.345 | 0.326 | 0.282 | 0.321 | 0.362 | 0.314 | 0.265 | 0.328 | 0.26 | 0.265 | 0.464 | 0.44 | 0.363 | 0.353 | 0.275 | 0.768 | 0.561 | 0.611 | 0.561 | 0.279 |
| NCI-H1993 | 0.491 | 0.412 | 0.478 | 0.437 | 0.447 | 0.877 | 0.793 | 0.851 | 0.684 | 0.79 | 0.559 | 0.547 | 0.527 | 0.457 | 0.486 | 0.654 |  | 0.711 | 0.633 | 0.731 |
| NCI-H2009 | 0.284 | 0.308 | 0.317 |  | 0.272 | 0.911 | 0.959 | 0.833 | 0.691 | 0.846 | 0.51 | 0.46 | 0.437 | 0.465 | 0.235 | 1.2 | 1.13 | 1.13 | 1.1 | 1.2 |
